In patent US20230390296A1, “NOVEL TREATMENT AND PREVENTION OF SARCOPENIA-RELATED DISEASES” (KEIO UNIVERSITY, priority 2020, published 2023):
“Also recorded” adds a separate entry of the source.

What was measured:
[1] = tested on: Mice induced to be obese by feeding high fat feed; assay: High fat feed obese mice (metabolism); type: in vivo, mouse; conditions: administered versus non-administered group
Description: Mice induced to be obese by feeding high fat feed were divided into two groups. OK was administered to one of the groups, and OK was not administered to the other group.

old mice (C57BL/6J) = assay: Treadmill test of muscle strength (endurance) in young and old mice; type: in vivo, mouse
From the text: Decrease in endurance in old mice In order to confirm that a decrease in muscle strength is observed in mouse models (C57BL/6J) (purchased from Oriental Yeast), the muscle strength (endurance) in 15-week old young mice and 79-week-old old mice was investigated in a treadmill test in accordance with the following (FIG. 1A). Prior to recording the performance, mice were trained for 3 days to acclimate the mice to the equipment. Electric stimulation grid was adjusted to 1 mA, and the gradient was set to 15 degrees. On the first day of training, mice were induced to walk for 10 minutes at a rate of 10 m/minute, allowed to rest for 10 minutes, and then induced to walk for 10 minutes at a rate of 10 m/minute on a treadmill. On day 2 and day 3, the first two steps were the under the same conditions as day 1, and then the mice were induced to start walking at 10 m/minute. The speed was increased by 1 m/minute until reaching the maximum speed of 20 m/minute. On day 4, the maximum exercise endurance was measured. Six mice were placed on a treadmill, which was started at a belt speed of 5 m/minute for 5 minutes to let the mice warm up. The speed was increased 1 m/minute until reaching the maximum speed of 20 m/minute. After making the mice run for 5 minutes, the speed was increased from 20 m/minute to 21 m/minute for 10 minutes. The mice were then forced to run at 22 m/minute until stalling on the electric stimulation grid for 10 seconds. The distance traveled until stalling for 10 seconds was measured.
OK-1 manufactured in Manufacturing Example 1 was intraperitoneally administered to young and old mice twice a week over three months. The dosage was 20 mg/kg/day.
74-week old mice (C57B16/J) were purchased from Oriental Yeast. […] Muscle strength (endurance) and grip strength of mice administered with C-82 were then measured through a treadmill test and smart grip strength meter for rats and mice (Muromachi Kikai Co., Ltd.), respectively. […]

[2] = tested on: muscle of mice (C57BL/6J) with exercise; assay: Gene analysis (RNA-seq, GSEA) of muscle of administered mice with exercise; type: in vivo, mouse
Description: Gene analysis (RNA-seq) in OK-1 administered mice (C57BL/6J) with exercise was performed by the same method as Example 2.
The category of genes with differential expression identified in Example 5 was analyzed by the same method (GSEA) as Example 3 (FIG. 6).

[3] = Blood (plasma) test of six markers with biochemical automatic analyzer; type: in vivo, mouse
Description: 75-week old mice (C57B16/J) were purchased from Oriental Yeast. Various concentrations (0 mg/kg (control), 0.2 mg/kg, 2 mg/kg, 20 mg/kg, and 40 mg/kg) of OK-1 were administered twice a week for 12 weeks until reaching 87-week old. Blood (plasma) was then recovered, and the concentrations of the following six markers were measured using a biochemical automatic analyzer (JCA-BM6050, JEOL). • LDH: lactate dehydrogenase can predict a liver, myocardial, or skeletal muscle disorder, etc. A decrease in LDH is expected to have a therapeutic effect on acute hepatitis, chronic hepatitis, cirrhosis, liver cancer, and other liver diseases, acute myocardial infarction, congested heart failure, and other heart diseases, polymyositis, muscular dystrophy, and other muscular diseases, pernicious anemia, leukemia, hemolytic anemia, etc. • ALT: This is a biomarker that can predict a liver tissue disorder. A decrease in ALT is expected to have a therapeutic effect on acute hepatitis, chronic hepatitis, alcoholic hepatitis, cirrhosis, liver cancer, fatty liver, acute myocardial infarction and other heart diseases, progressive muscular dystrophy and other muscular diseases, etc. • TG: Neutral fat is used for predicting diabetes, obesity, or arteriosclerotic disease. A decrease in TG is expected to have a therapeutic effect on hyperchylomicronemia, LPL deficiency, diabetes, obesity, arteriosclerosis, gout, hypothyroidism, Cushing's syndrome, nephrotic syndrome, obstructive jaundice, acute/chronic pancreatitis, etc. • HDL-C: This is used as a marker for arteriosclerosis, diabetes, cirrhosis, etc., of HDL cholesterol. A decrease in HDL-C is expected to have a therapeutic effect on primary biliary cirrhosis and hyperthyroidism. • UN: Urea nitrogen is a biomarker that can predict dysfunction of kidney or urinary system. An increase in UN is expected to have a therapeutic effect on toxic hepatitis, fulminant hepatitis, end-stage of cirrhosis, diabetes insipidus, acromegaly, etc. • UA: Uric acid is a biomarker for kidney or liver function. An increase in UA is expected to have a therapeutic effect on cirrhosis, xanthinuria, Fanconi syndrome, Wilson's syndrome, glomerulonephritis, etc.

sarcopenia mouse models = assay: Brain function behavioral tests (Barnes maze, fear conditioning, object recognition, open field, social behavior); type: in vivo; conditions: administered versus non-administered sarcopenia mouse models
Description: (§1) Mouse models were divided into two groups. Short term memory, long term memory, depression, activity level, social interaction, cognitive ability, etc., were tested using a Barnes maze, fear conditioning test, object recognition test, open field test, social behavior test (Crawley version), etc. on sarcopenia mouse models administered with OK-1 and sarcopenia mouse models without administration of OK-1.
These tests are described in http://www.fujita-hu.ac.jp/ to smedsci/behaviorcore/equipment/index.html, Barnes maze, a useful task to assess spatial reference memory in the mice (doi: 10.1038/nprot.2007.390), etc., which can be suitably referenced and practiced.
as §1, with “C-82” for “OK-1”, “C-82.” for “OK-1.”
These tests are described in http://www.fujita-hu.ac.jp/to smedsci/behaviorcore/equipment/index.html, Barnes maze, a useful task to assess spatial reference memory in the mice (doi: 10.1038/nprot.2007.390), etc., which can be suitably referenced and practiced.

C2C12 cells = assay: Gene expression levels in treated cultured cells; type: cell-based, mouse
Description: Mouse striated muscle derived cells, i.e., C2C12 cells, were cultured and treated with OK-1, ICG-001, or C-82. Gene expression levels of cells treated with OK-1, ICG-001, or C-82, and untreated cells are compared.

[4] = tested on: ALS mouse models (e.g., SOD1G93A mice); assay: ALS mouse model; type: in vivo; conditions: administered versus non-administered group
Description: ALS mouse models (e.g., SOD1G93A mice) were divided into two groups. OK was administered to one of the groups, and OK was not administered to the other group.

[5] = 75-week old mice, 0.2, 2, 20, 40 mg/kg twice a week for 12 weeks
[6] = at a specific OK-1 concentration, twice a week for 12 weeks

Row | SMILES | metabolism [1] | muscle strength (endurance) through a treadmill test (old mice (C57BL/6J); intraperitoneal, twice a week over three months, 20 mg/kg/day, young (15-week) and old (79-week) mice) | gene group associated with OK-1 by GSEA: genes regulating muscle genes with exercise ([2]; GSEA) | genes decreased (downregulated expression) significantly in muscle ([2]; OK-1 administration, p<0.05) | genes increased (upregulated expression) significantly in muscle ([2]; OK-1 administration, p<0.05) | gene group associated with OK-1: genes associated with muscle control with exercise ([2]; upstream transcription factors) | HDL-C concentration ([3]; 0.2 to 40 mg/kg twice a week for 12 weeks) | LDH concentration [3, 5] | UA concentration [3, 5] | ALT concentration [3, 6] | TG concentration [3, 6] | UN concentration [3, 6] | short term memory, long term memory, depression, activity level, social interaction, cognitive ability (sarcopenia mouse models) | gene expression levels versus untreated cells (C2C12 cells) | ALS [4] | muscle strength (endurance) through a treadmill test (old mice (C57BL/6J); 74-week old mice, 7 mg/kg and 20 mg/kg intraperitoneal twice a week for 6 weeks, versus no administration) | change in gene expression in muscles ([2]; C-82 administration, same method as Example 2)
1 | C[C@H]1[C@H]2N(C(=O)CN(C)N2C(=O)NCc2ccccc2)[C@@H](Cc2ccc(OP(=O)(O)O)cc2)C(=O)N1Cc1cccc2cccnc12 [OK-1] | metabolism is improved | increase in muscle strength due to OK-1 administration, which is specific to old mice | ETS2, ETS1, EP300, RUNX2, SMAD3, SMAD4, E2F1, NOTCH1, TRP53, PAX6, SMAD1, SP1, SPI1, and NFKB1 | 631 genes | 145 genes | Jun, Ets1, Sp1, Ep300, Usf2, Fosl1, Nfkb1, Smad3, Srf, Junb, Runx2, Ets2, Etv4, Tgfb1, and Tgfb1i1 | A significant change was not observed | reduces the LDH concentration | increases the UA concentration at all concentrations | a decrease in the ALT concentration | a decrease in TG concentration | an increase in UN concentration | short term memory, long term memory, depression, activity level, social interaction, and cognitive ability are improved | change in gene expression similar to Example 2 | ALS is improved |  | 
2 | C[C@H]1[C@H]2N(C(=O)CN(C)N2C(=O)NCc2ccccc2)[C@@H](Cc2ccc(O)cc2)C(=O)N1Cc1cccc2cccnc12 [C-82, (6S,9S)—N-benzyl-6-(4-hydroxybenzyl)-2,9-dimethyl-4,7-dioxo-8-(quinolin-8-ylmethyl)hexahydro-2H-pyrazino[2,1-c][1,2,4]triazine-1(6H)-carboxamide] |  |  |  |  |  |  |  |  |  |  |  |  | short term memory, long term memory, depression, activity level, social interaction, and cognitive ability are improved | change in gene expression similar to Example 2 |  | significant increase in muscle strength (endurance); also recorded: increased significantly | achieves the same result as OK-1
